Entries after “also recorded” stand apart in the source; their conditions may differ.
Key:
EphB4 [1] = assay: EphB4 expression in PC3 cells on EGFR / IGF-1R blockade (Western blot); type: cell-based, human; conditions: AG1478 1 nM 36 hours, MAB391 2 μg/ml overnight
Protocol: A) Western blot of PC3 cells treated with or without EGFR specific inhibitor AG1478 (1 nM) for 36 hours. […] The membrane was stripped and reprobed with β-actin, which was unaffected. B) Western Blot of triplicate samples of PC3 cells treated with or without IGFR-1 specific neutralizing antibody MAB391 (2 μg/ml; overnight). The membrane was sequentially probed with EphB4, IGFR-1 and β-actin antibodies.

EphB4 [2] = assay: EphB4 expression in HNSCC cell lines on EGFR inhibition (Western blot); type: cell-based, human
Protocol: Western blot of total cell lysates sequentially probed with EphB4 monoclonal antibody, stripped and reprobed with β-actin monoclonal antibody as described for FIG. 39C. B) Effect of the specific EGFR inhibitor AG1478 on EphB4 expression: Western blot of crude cell lysates of SCC15 treated with 0-1000 nM AG 1478 for 24 h in media supplemented with 10% FCS (left) or with […] AG 1478 for 4, 8, 12 or 24 h (right). Shown are membranes sequentially probed for EphB4 and β-actin. C) Effect of inhibition of EGFR signaling on EphB4 expression in SCC cell lines: Cells maintained in growth media containing 10% FCS were treated for 24 hr with 1 μM AG 1478, after which crude cell lysates were analyzed by Western blots of cell lysates sequentially probed with for EGFR, EphB4, ephrin B2 and β-actin antibodies. Specific signal for EGFR was detected at 170 kD and ephrin B2 at 37 kD in addition to EphB4 and β-actin as described in FIG. 1C. β-actin serves as loading and transfer control.

## COc1cc2ncnc(Nc3cccc(Cl)c3)c2cc1OC [AG1478]
EphB4 [1]
  EphB4 level: down-regulated; also recorded: Decreased EphB4 signal
EphB4 [2]; SCC-9, -12, -13 and -71
  total amount of EphB4: no effect
EphB4 [2]; SCC-15 and SCC-25, 24 h, 1 µM
  total amount of EphB4: marked loss
